# Results from patent US8362000B2, “Azetidinyl diamides as monoacylglycerol lipase inhibitors” (Janssen Pharmaceutica NV, priority 2009, dated 2013).
# Residue numbers refer to the chain shown, from its start. Read-outs that look alike come from different tables or passages of the source.
# Columns and labels:
# mutant MGL = target: T1, mutant MGL (Homo sapiens, UniProt Q99685, L169S/L176S); experiment: MGL ThermoFluor assay - mutant; format: binding
# T1 sequence (Q99685 1-303 L169S/L176S): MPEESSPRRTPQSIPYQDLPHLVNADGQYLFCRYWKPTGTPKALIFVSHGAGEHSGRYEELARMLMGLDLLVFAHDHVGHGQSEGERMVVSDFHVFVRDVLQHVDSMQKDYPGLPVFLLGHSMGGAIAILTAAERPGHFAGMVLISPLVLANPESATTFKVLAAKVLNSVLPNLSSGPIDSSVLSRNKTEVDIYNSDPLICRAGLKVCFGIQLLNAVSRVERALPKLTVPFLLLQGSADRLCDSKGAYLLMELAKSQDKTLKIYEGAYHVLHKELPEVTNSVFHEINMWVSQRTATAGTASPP
# [1] = target: T2, purified wild type MGL (wt-MGLL 6H-11-313) (Homo sapiens, UniProt Q99685)
# T2 sequence (Q99685 1-303): T1 sequence (Q99685 1-303 L169S/L176S) with S169L, S176L
# [2] = ThermoFluor concentration-response, read-out: MGL mutant ThermoFluor Kd
# [3] = compound concentration measured by qNMR, read-out: MGL mutant ThermoFluor qKd (using qNMR conc.)
# [4] = ThermoFluor, compound concentration measured by qNMR, read-out: MGL mutant ThermoFluor qKd (using qNMR conc.)
SMILES,Kd (mutant MGL; [2]) [nM],IC50 [1] [nM],Kd (mutant MGL; [3]) [nM],Kd (mutant MGL; [4]) [nM]
Cc1c(Cc2ccc(C(F)(F)F)cc2)cccc1C(=O)N1CC(N2CCN(C(=O)c3ccc[nH]3)CC2)C1 [Cpd 1013],760,161,,
Cc1c(Cc2ccc(C(F)(F)F)cc2)cccc1C(=O)N1CC(N2CCN(C(=O)c3ccns3)CC2)C1 [Cpd 1014],903,257,,
Cc1c(Cc2ccc(C(F)(F)F)cc2)cccc1C(=O)N1CC(N2CCN(C(=O)c3cncs3)CC2)C1 [Cpd 1015],1180,777,,
O=C(c1nccs1)N1CCN(C2CN(C(=O)c3nn(-c4ccc(Cl)cc4Cl)c4c3CCC/C4=C\c3ccc(Cl)cc3)C2)CC1 [Cpd 1018],207,101,,
Cn1cc(Cc2ccc(F)cc2)c2ccc(C(=O)N3CC(N4CCN(C(=O)c5nccs5)CC4)C3)cc21 [Cpd 1026],,16,1,
"O=C(c1ccc2c(cnn2Cc2ccc(F)cc2)c1)N1CC(N2CCN(C(=O)c3nccs3)CC2)C1 [Cpd 1029, 1-(4-Fluorobenzyl)-5-({3-[4-(1,3-thiazol-2-ylcarbonyl)piperazin-1-yl]azetidin-1-yl}carbonyl)-1H-indazole]",,< 5,6,
"O=C(c1ccc2nn(Cc3ccc(F)cc3)cc2c1)N1CC(N2CCN(C(=O)c3nccs3)CC2)C1 [Cpd 1030, 2-(4-Fluorobenzyl)-5-({3-[4-(1,3-thiazol-2-ylcarbonyl)piperazin-1-yl]azetidin-1-yl}carbonyl)-2H-indazole]",,13,33,
CN(C(=O)Cn1ccc2cc(C(=O)N3CC(N4CCN(C(=O)c5nccs5)CC4)C3)ccc21)c1ccccc1 [Cpd 1031],,111,134,
CN(C(=O)Cn1ccc2cc(C(=O)N3CC(N4CCN(C(=O)c5cscn5)CC4)C3)ccc21)c1ccccc1 [Cpd 1032],,3020,1100,
O=C(Cn1ccc2cc(C(=O)N3CC(N4CCN(C(=O)c5nccs5)CC4)C3)ccc21)N1CCCC1 [Cpd 1035],,4620,1010,
"O=C(c1ccc2c(cnn2Cc2ccc(C(F)(F)F)cc2)c1)N1CC(N2CCN(C(=O)c3nccs3)CC2)C1 [Cpd 1036, 5-({3-[4-(1,3-Thiazol-2-ylcarbonyl)piperazin-1-yl]azetidin-1-yl}carbonyl)-1-[4-(trifluoromethyl)benzyl]-1H-indazole]",,< 5,5,

# Continued, values first:
Kd (mutant MGL; [2]) [nM],IC50 [1] [nM],Kd (mutant MGL; [3]) [nM],Kd (mutant MGL; [4]) [nM],SMILES
,5,22,,"O=C(c1ccc2nn(Cc3ccc(C(F)(F)F)cc3)cc2c1)N1CC(N2CCN(C(=O)c3nccs3)CC2)C1 [Cpd 1037, 5-({3-[4-(1,3-Thiazol-2-ylcarbonyl)piperazin-1-yl]azetidin-1-yl}carbonyl)-2-[4-(trifluoromethyl)benzyl]-2H-indazole]"
,< 5,2,,"O=C(c1ccc2c(cnn2Cc2cccc(C(F)(F)F)c2)c1)N1CC(N2CCN(C(=O)c3nccs3)CC2)C1 [Cpd 1038, 5-({3-[4-(1,3-Thiazol-2-ylcarbonyl)piperazin-1-yl]azetidin-1-yl}carbonyl)-1-[3-(trifluoromethyl)benzyl]-1H-indazole]"
,5,7,,"O=C(c1ccc2nn(Cc3cccc(C(F)(F)F)c3)cc2c1)N1CC(N2CCN(C(=O)c3nccs3)CC2)C1 [Cpd 1039, 5-({3-[4-(1,3-Thiazol-2-ylcarbonyl)piperazin-1-yl]azetidin-1-yl}carbonyl)-2-[3-(trifluoromethyl)benzyl]-2H-indazole]"
,25,14,,"CC(c1ccccc1)n1cc2cc(C(=O)N3CC(N4CCN(C(=O)c5nccs5)CC4)C3)ccc2n1 (stereo not shown) [Cpd 1040, 2-(1-Phenylethyl)-5-({3-[4-(1,3-thiazol-2-ylcarbonyl)piperazin-1-yl]azetidin-1-yl}carbonyl)-2H-indazole]"
,19,,397,O=C(COc1ccc(C(=O)N2CC(N3CCN(C(=O)c4nccs4)CC3)C2)cc1)Nc1cccc(C(F)(F)F)c1 [Cpd 1041]
,5270,,5000,Cc1cc(C(=O)N2CC(N3CCN(C(=O)c4nccs4)CC3)C2)c(C)n1Cc1ccc(S(N)(=O)=O)cc1 [Cpd 1042]
